From paper PMC10249031 (ACS Omega, 2023)
Read-outs that look alike come from different tables or passages of the source.

Tests used:
EGFR-TK = EGFR-TK (Homo sapiens, UniProt P00533); assay: ADP-Glo Kinase Assay, EGFR tyrosine kinase inhibition; type: biochemical; conditions: for EGFR-TK inhibitory activity (screening): at 1 μM, compared to erlotinib, n = 2
A549 cells = assay: MTT cytotoxicity assay, A549; type: cell-based, human; conditions: for Cell viability of A549: 10 μM
Vero cells = assay: MTT cytotoxicity assay, Vero normal cell line; type: cell-based, monkey; conditions: Primates, 72 h, read-out: IC50 Vero
A431 cells [1] = conditions: 10 μM, 72 h, MTT
A431 cells [2] = assay: cells; conditions: Homo sapiens, A-431, 72 h, read-out: IC50 A431
[3] = Homo sapiens, A549, 72 h, read-out: IC50 A549

EGFR-TK, sequence (P00533 25-1210): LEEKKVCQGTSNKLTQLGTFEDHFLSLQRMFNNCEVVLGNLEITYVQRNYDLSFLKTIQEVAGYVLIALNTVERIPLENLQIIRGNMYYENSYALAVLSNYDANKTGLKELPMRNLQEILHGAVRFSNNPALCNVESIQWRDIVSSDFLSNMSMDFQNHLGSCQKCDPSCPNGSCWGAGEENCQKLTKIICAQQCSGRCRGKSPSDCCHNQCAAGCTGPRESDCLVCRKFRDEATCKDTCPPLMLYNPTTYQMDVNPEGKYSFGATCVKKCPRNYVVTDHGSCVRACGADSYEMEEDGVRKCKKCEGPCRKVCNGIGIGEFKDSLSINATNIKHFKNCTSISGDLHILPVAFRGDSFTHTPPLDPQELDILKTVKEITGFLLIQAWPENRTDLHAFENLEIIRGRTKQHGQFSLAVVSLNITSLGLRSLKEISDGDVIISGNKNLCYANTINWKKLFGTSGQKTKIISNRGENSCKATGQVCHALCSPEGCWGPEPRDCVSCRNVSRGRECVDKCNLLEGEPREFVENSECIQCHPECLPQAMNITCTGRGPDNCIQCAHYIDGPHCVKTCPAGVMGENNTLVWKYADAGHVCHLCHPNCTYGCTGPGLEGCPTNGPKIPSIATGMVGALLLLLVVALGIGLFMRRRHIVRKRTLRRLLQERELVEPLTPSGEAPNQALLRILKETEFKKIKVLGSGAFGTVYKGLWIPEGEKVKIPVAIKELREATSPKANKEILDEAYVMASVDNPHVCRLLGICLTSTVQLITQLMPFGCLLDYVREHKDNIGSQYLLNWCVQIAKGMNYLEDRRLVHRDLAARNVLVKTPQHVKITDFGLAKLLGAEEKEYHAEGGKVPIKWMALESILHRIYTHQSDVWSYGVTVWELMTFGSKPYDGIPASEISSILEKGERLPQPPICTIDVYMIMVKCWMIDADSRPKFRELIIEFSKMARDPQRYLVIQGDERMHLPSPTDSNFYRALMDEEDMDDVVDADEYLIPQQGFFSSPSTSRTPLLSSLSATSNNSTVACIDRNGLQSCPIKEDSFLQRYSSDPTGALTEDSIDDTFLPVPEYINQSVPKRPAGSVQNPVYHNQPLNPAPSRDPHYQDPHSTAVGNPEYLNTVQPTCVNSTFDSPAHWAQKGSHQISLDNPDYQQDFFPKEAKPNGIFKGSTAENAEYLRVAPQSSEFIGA

Row | IC50 (A431 cells [2]) | IC50 (EGFR-TK) | SMILES | EGFR-TK inhibitory activity (screening) (EGFR-TK) | Cell viability of A549 (A549 cells; 72 h, MTT) | IC50 (A549 cells; [3]) | IC50 (Vero cells) | Cell viability of A431 (A431 cells [1]) | IC50 (A549 cells; Homo sapiens, A549, 72 h, read-out: IC50 A549, MTT, 72 h) | IC50 (A549 cells; read-out: IC50 A549, MTT, 72 h)
1 | 17.7 ± 0.35 µM | – | COc1ccc(S(=O)(=O)c2c3c4ccccc4n(C)c(-c4ccccc4)c-3c3ccccc23)cc1 [SIQ3] | higher EGFR-TK inhibitory activity than erlotinib | more vulnerable | 33.5 ± 0.47 µM | > 100 µM | more susceptible | – | –
2 | 9.93 ± 0.45 µM | – | Cn1c(-c2ccccc2)c2c3ccccc3c(S(=O)(=O)c3ccc(Cl)cc3)c-2c2ccccc21 [SIQ5] | higher EGFR-TK inhibitory activity than erlotinib | more vulnerable | 16.8 ± 0.41 µM | 8.06 ± 0.15 µM | more susceptible | – | –
3 | 14.1 ± 0.73 µM | – | Cc1ccc(S(=O)(=O)c2c3c4ccccc4n(C)c(-c4ccccc4)c-3c3ccccc23)c(C)c1 [SIQ8] | higher EGFR-TK inhibitory activity than erlotinib | more vulnerable | 27.2 ± 0.71 µM | 21.7 ± 0.5 µM | – | – | –
4 | – | 0.0214 ± 0.00574 µM | Cc1ccc(-c2c3c4ccccc4c(S(=O)(=O)c4ccc(C)cc4)c-3c3ccccc3n2C)cc1 [SIQ10] | higher EGFR-TK inhibitory activity than erlotinib | – | – | – | – | – | –
5 | – | 0.0232 ± 0.00876 µM | COc1ccc(-c2c3c4ccccc4c(S(=O)(=O)c4ccc(C)cc4)c-3c3ccccc3n2C)cc1 [SIQ11] | higher EGFR-TK inhibitory activity than erlotinib | – | – | – | – | – | –
6 | 13.1 ± 0.5 µM | – | Cc1ccc(S(=O)(=O)c2c3c4ccccc4n(C)c(-c4ccc(Cl)cc4)c-3c3ccccc23)cc1 [SIQ12] | higher EGFR-TK inhibitory activity than erlotinib | more vulnerable | 23.2 ± 0.42 µM | 7.25 ± 0.12 µM | more susceptible | – | –
7 | 19.2 ± 0.97 µM | – | Cc1ccc(S(=O)(=O)c2c3c4ccccc4n(C)c(-c4ccc(C)cc4C)c-3c3ccccc23)cc1 [SIQ17] | higher EGFR-TK inhibitory activity than erlotinib | more vulnerable | 33 ± 0.59 µM | > 100 µM | – | – | –
8 | 11.9 ± 0.41 µM | – | Cc1ccc(S(=O)(=O)c2c3c4cc(C)ccc4n(C)c(-c4ccccc4)c-3c3ccccc23)cc1 [SIQ19] | higher EGFR-TK inhibitory activity than erlotinib | – | 29.3 ± 0.44 µM | 5.88 ± 0.33 µM | more susceptible | – | –
9 | – | – | C#Cc1cccc(Nc2ncnc3cc(OCCOC)c(OCCOC)cc23)c1 [erlotinib, reference compound] | – | – | – | 35 ± 1.35 µM | – | 33.3 µM | 33.3 ± 1.88 µM
